Test results: PMC9147192, “Small Molecule Arranged Thermal Proximity Coaggregation (smarTPCA)—A Novel Approach to Characterize Protein–Protein Interactions in Living Cells by Similar Isothermal Dose–Responses” (International Journal of Molecular Sciences, 2022)
Values joined by “and” are separate entries in the source; they are usually repeats but may differ in a detail not shown here. Equal entries are not always repeated. Where two headings read alike, the source gives them in different places.

How the values were obtained:
MAPK14 [1] = molecular target: T1, MAPK14 (Homo sapiens, UniProt Q16539); assay: CETSA in HL-60 cell extract, immunoblot; type: binding
T1 sequence (Q16539 whole entry): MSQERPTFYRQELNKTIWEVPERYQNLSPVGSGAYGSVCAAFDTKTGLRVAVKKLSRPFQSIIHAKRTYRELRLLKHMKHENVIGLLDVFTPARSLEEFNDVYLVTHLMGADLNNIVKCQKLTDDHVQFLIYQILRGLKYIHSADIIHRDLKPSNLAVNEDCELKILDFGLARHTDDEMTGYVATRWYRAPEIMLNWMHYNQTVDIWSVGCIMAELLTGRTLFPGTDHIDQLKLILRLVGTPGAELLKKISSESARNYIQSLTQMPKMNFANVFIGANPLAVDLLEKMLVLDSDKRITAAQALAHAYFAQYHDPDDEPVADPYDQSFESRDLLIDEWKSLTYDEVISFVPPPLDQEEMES
Experimental: (§1) For the differentiation of primary and secondary binding effects, CETSA experiments using cell extracts instead of living cells (cell extract test) are proposed in the literature. Therefore, we performed CETSA assays in HL-60 cell extracts under the same conditions as for living cells (Figure 1, Table 1, Supplementary Table S6).
(§2) HL-60 cells were expanded as described above for CETSA and TPP-TR to about 1.25 million cells per ml. 50 mL of the cell suspension, respectively, was transferred into 50 mL conical tubes. After centrifugation (300 rcf, 3 min, r.t.) and removing all of the supernating culture medium, the cells were washed twice with 25 mL PBS (r.t.) by gently resuspending the cells, followed by centrifugation (300 rcf, 3 min, r.t.) and the removal of the supernatant. The cells were transferred into pre-weighed 2 mL LoBind Eppendorf tubes using 1 mL PBS (r.t.), respectively, for resuspending. After centrifugation (300 rcf, 3 min, r.t.) and removing as much as possible of the supernatants, the cell wet weights were determined. The cells were stored at −80 °C after shock-freezing in liquid nitrogen.
(§3) Cell extracts were obtained by four freeze/thaw cycles as described above for CETSA and TPP-TR using 10 µL ice cold PBS supplemented with protease inhibitors per milligram of cell pellet wet weight for the initial resuspension of the pellet, followed by centrifugation (20,000 rcf, 30 min, 4 °C), and the recovery of the supernatant. After determining the protein content, the cell extracts were diluted to 1.8 mg/mL total protein concentration using ice-cold PBS supplemented with protease inhibitors and aliquots of 99 µL in PCR tube strips, and 1.1 mL in LoBind 1.5 mL Eppendorf tubes were shock-frozen in liquid nitrogen and stored at −80 °C or directly processed.
(§4) A fourth aliquot of 1.8 mg/mL HL-60 cell extract was supplemented with 2.2 µL of DMSO. […] After a brief centrifugation using a benchtop centrifuge, the temperature treatment at the ten different temperatures was performed as described in Section 4.1.1.
(§5) Additionally, the preparation of cell extracts containing the fraction of soluble, non-denatured proteins was performed as described in Section 4.1.1. for living cells, but omitting the freeze/thaw steps for cell lysis.
(§6) For each sample set comprising either ten temperature range samples or ten compound concentration range samples, the same volume of the cell extracts containing the fraction of soluble, non-denatured proteins was used for further analysis. This volume was determined using the two lowest temperature samples (36.5 and 41.2 °C) per temperature range sample set so that they contained an average of 5 µg total protein (e.g., 2.78 µL for all temperature range samples of a sample set whose two lowest temperature samples contain an average of 1.8 mg/mL protein). For the compound concentration range experiments, all samples of a set were used for averaging. The calculated volume was respectively transferred into PCR tubes of a tube strip, supplemented with SDS sample buffer (final concentrations: 25 mM dithiothreitol (DTT), 7.5% glycerol, 3% SDS, 37.5 mM Tris/HCl pH 7.0, 0.005% bromophenol blue), incubated for 10 min at r.t. and applied to SDS-PAGE under external cooling in an ice bath (MW marker: PageRuler pre-stained protein ladder (Thermo scientific, Waltham, MA, USA); NuPAGE 4–12% Bis-Tris Gels, 1.0 mm, Midi Protein Gel, 26-well (Thermo fisher scientific); ice cold MOPS SDS running buffer (50 mM MOPS, 50 mM Tris base, 0.1% SDS, 0.003% EDTA (free acid)); 50 V for 15 min, then 200 V for about 1.5 h, i.e., the rest of the run).

MAPKAPK2p = molecular target: T2, MAPKAPK2p (Homo sapiens, UniProt P49137); assay: CETSA in HL-60 cell extract, immunoblot; type: binding
T2 construct: phosphorylation-dependent electrophoretic mobility shift (PDEMS) of MAPKAPK2, which appeared as a double band; endogenous in cells; host or cells: HL-60 (ATCC CCL-240), living cells or cell extract
T2 sequence (P49137 whole entry): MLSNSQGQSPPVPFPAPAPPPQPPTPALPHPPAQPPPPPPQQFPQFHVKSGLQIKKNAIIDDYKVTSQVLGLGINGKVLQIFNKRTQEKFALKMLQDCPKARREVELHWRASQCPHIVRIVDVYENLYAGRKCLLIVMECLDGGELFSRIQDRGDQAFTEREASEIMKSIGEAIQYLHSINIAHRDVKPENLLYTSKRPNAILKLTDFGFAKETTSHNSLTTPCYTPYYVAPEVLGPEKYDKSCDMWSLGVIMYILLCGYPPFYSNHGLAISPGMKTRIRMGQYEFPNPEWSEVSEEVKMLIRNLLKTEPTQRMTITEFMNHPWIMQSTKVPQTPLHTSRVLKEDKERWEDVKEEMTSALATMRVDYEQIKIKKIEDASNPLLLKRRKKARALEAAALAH
T2 sequence (Q16539 2-360 partner): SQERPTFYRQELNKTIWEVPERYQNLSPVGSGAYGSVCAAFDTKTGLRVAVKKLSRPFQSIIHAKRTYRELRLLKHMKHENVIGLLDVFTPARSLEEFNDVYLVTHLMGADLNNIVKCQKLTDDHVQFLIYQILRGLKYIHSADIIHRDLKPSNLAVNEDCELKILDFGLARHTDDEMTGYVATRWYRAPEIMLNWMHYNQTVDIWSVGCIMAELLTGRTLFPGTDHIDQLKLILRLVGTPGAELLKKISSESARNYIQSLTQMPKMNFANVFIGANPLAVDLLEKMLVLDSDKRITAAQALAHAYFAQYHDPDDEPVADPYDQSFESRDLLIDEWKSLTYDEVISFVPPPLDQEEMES
Experimental: as §1, §2, §3, §4, §5, §6

MAPKAPK3 [2] = molecular target: T3, MAPKAPK3 (Homo sapiens, UniProt Q16644); assay: CETSA in HL-60 cell extract, immunoblot; type: binding
Experimental: as §1, §2, §3, §4, §5, §6
Target sequence in this assay (Q16644 whole entry): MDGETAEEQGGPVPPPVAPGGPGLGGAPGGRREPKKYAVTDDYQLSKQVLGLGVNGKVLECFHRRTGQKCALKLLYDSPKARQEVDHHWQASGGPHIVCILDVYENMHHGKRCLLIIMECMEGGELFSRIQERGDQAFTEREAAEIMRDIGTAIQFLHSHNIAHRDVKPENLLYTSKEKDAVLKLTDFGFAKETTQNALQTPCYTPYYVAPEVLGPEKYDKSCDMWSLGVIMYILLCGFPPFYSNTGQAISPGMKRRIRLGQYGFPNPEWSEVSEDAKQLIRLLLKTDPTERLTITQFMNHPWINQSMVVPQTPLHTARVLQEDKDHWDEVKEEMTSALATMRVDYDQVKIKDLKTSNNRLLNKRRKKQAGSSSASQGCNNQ
Target sequence in this assay (Q16539 whole entry partner): as the sequence (Q16539 whole entry) above

MAPK14 [3] = system: MAPK14; parameters: method as in Seashore-Ludlow et al., Biochemistry 2018; conditions: MAPK14 only, ref Seashore-Ludlow et al., Biochemistry 2018, cited from earlier work
MAPK14 [4] = system: MAPK14; parameters: method as in Seashore-Ludlow et al., Biochemistry 2018; conditions: MAPK14 only, extrapolated to 50°C and extracted from figure 3b; ref Seashore-Ludlow et al., Biochemistry 2018; cited from earlier work
MAPK14 [5] = molecular target: T1, MAPK14; assay: TPP-CCR in living HL-60 cells; conditions: […] °C, TMT-MS
MAPKAPK3 [6] = molecular target: T3, MAPKAPK3; assay: TPP-CCR in living HL-60 cells; conditions: […] °C, TMT-MS
Target sequence in this assay (Q16644 whole entry): as the sequence (Q16644 whole entry) above
Target sequence in this assay (Q16539 2-360 partner limits assumed): as the sequence (Q16539 2-360 partner) above

MAPKAPK2 = MAPKAPK2 (Homo sapiens, UniProt P49137); assay: TPP-CCR in living HL-60 cells; conditions: […] °C, TMT-MS
Sequence of MAPKAPK2 (P49137 whole entry): as the sequence (P49137 whole entry) above
Sequence of MAPKAPK2 (Q16539 2-360 partner limits assumed): as the sequence (Q16539 2-360 partner) above

MARS = MARS (Homo sapiens, UniProt P56192); assay: TPP-CCR in living HL-60 cells
Sequence of MARS (P56192 whole entry): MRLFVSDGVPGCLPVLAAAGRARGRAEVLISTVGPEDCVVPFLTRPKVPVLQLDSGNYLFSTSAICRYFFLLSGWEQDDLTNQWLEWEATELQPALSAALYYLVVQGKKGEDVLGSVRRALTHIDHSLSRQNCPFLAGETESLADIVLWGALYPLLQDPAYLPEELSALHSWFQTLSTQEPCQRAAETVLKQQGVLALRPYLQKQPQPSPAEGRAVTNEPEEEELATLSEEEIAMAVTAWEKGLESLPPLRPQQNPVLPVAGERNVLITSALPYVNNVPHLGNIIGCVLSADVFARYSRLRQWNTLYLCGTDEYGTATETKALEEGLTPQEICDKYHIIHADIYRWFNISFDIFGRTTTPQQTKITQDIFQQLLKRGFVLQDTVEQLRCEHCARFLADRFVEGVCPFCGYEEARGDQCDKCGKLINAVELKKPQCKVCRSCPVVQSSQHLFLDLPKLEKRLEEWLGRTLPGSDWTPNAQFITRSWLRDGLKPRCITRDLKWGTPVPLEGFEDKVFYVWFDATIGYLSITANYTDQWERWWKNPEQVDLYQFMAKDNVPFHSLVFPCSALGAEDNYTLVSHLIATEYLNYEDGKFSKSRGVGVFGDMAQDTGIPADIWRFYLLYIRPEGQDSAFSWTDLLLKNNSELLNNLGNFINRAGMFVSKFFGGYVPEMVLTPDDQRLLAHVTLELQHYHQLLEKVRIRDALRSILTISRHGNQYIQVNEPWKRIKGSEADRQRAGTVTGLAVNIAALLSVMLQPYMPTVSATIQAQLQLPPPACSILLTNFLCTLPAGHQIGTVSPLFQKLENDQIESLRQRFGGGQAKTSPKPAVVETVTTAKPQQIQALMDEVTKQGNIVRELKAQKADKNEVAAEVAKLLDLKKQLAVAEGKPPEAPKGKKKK

TRAPPC4 = TRAPPC4 (Homo sapiens, UniProt Q9Y296); assay: TPP-CCR in living HL-60 cells
Sequence of TRAPPC4 (Q9Y296 whole entry): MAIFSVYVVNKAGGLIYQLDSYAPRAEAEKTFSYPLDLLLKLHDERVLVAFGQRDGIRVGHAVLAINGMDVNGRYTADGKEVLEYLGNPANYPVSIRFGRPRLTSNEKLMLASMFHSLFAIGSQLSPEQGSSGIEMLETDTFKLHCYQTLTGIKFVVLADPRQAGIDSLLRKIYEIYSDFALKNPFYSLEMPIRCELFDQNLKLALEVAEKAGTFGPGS

MYLK = system: MYLK; parameters: method as in PMID 22037378; conditions: cited from earlier work
[7] = HL-60 cell extract, 20 µM inhibitor, immunoblot
[8] = HL-60 cell extract, 20 µM inhibitor, immunoblot, 20 µM
[9] = MAPKAPK2p, cell extract, immunoblot
[10] = MAPKAPK3, cell extract, immunoblot
[11] = living HL-60 cells, […] °C, TMT-MS

## Cn1c(NC[C@@H](N)Cc2ccccc2)nc(-c2ccncc2)c(-c2ccc3ccccc3c2)c1=O [AMG-548]
MAPK14 [1]; 20 µM inhibitor, read-out: ΔTm to DMSO in Cell Extract Compared to Living Cells (MAPK14)
  ΔTm at 20 µM: -1.16 °C
MAPK14 [1]; CETSA in cell extract (lysate), MAPK14, inhibitor minus DMSO
  Tm difference vs DMSO, same protein: 13.60
MAPK14 [1]; CETSA in cell extract (lysate), MAPK14, in °C
  Tm (fitted melting curve): 59.15
MAPK14 [1]; [7]
  Tm (MAPK14): 59.15 °C
MAPK14 [1]; HL-60 cell extract, 20 µM inhibitor, immunoblot, read-out: ΔTm to DMSO (MAPK14)
  ΔTm at 20 µM: 13.6 °C
MAPK14 [1]; MAPK14, cell extract, immunoblot
  Tm: 59.15 °C
MAPKAPK2p; CETSA in cell extract (lysate), MAPKAPK2p, inhibitor minus DMSO
  Tm difference vs DMSO, same protein: 2.82
MAPKAPK2p; CETSA in cell extract (lysate), MAPKAPK2p, in °C
  Tm (fitted melting curve): 50.95
MAPKAPK2p; [7]
  Tm (MAPKAPK2p): 50.95 °C
MAPKAPK2p; [8]
  ΔTm to DMSO (MAPKAPK2p): 2.82 °C
MAPKAPK2p; HL-60 cell extract, 20 µM inhibitor, immunoblot, listed as AMG548, 20 µM
  ΔTm to DMSO (MAPKAPK2p): 2.8 °C
MAPKAPK2p; [9]
  Tm: 50.95 °C
  ΔTm to DMSO: 2.82 °C
MAPKAPK3 [2]; 20 µM inhibitor
  ΔTm to DMSO in Cell Extract Compared to Living Cells (MAPKAPK3): −3.99 °C
MAPKAPK3 [2]; CETSA in cell extract (lysate), MAPKAPK3, inhibitor minus DMSO
  Tm difference vs DMSO, same protein: 2.63
MAPKAPK3 [2]; CETSA in cell extract (lysate), MAPKAPK3, in °C
  Tm (fitted melting curve): 49.31
MAPKAPK3 [2]; [7]
  Tm (MAPKAPK3): 49.31 °C
MAPKAPK3 [2]; [8]
  ΔTm to DMSO (MAPKAPK3): 2.6 °C and 2.63 °C
MAPKAPK3 [2]; MAPKAPK3, cell extract minus living cells
  ΔTm to DMSO in cell extract compared to living cells: -3.99 °C
MAPKAPK3 [2]; [10]
  Tm: 49.31 °C
  ΔTm to DMSO: 2.63 °C
MAPK14 [3]; extrapolated to 50°C and extracted from figure 3b
  pEC50, Living cells: 8.57
MAPK14 [3]; extrapolated to 51°C and extracted from figure 3b
  pEC50, Living cells: 8.23
MAPK14 [4]
  pEC50, Cell extract: 8.14
MAPK14 [5]
  Hill slope (MAPK14): 0.57
MAPKAPK3 [6]
  Hill slope (MAPKAPK3): 0.68
MAPKAPK2
  Hill slope (MAPKAPK2): 0.72
MARS
  EC50: 209 nM
MARS; [11]
  Hill slope (MARS): 0.40
TRAPPC4
  EC50: 407 nM
TRAPPC4; [11]
  Hill slope (TRAPPC4): 0.43

## C[S+]([O-])c1ccc(-c2nc(-c3ccncc3)c(-c3ccc(F)cc3)[nH]2)cc1 (centres unmarked) [SB203580]
MYLK
  activity towards MYLK: inactivity
